Measurements: US5260275A, “Hypoglycemics” (Amylin Pharmaceuticals, Inc., priority 1990, dated 1993)

What was measured:
[1] = test system: HIT T-15 cells; test: Amylin release from HIT T-15 cells; type: cell-based, hamster
Description: (§1) HIT T-15 cells (HIT cells; American Type Tissue Collection, Rockville, MD; R. F. Santerre, et al. (1981) Proc. Nat. Acad. Sci. USA 78, 4339-4343.) were subcultured weekly in Ham's F-12 medium (Irvine Scientific, Santa Ana, Calif.) containing 10% horse serum (Gemini Bioproducts, Calabasas, Calif.), 2.5% fetal bovine serum (FBS; Gemini), 2 mM L-glutamine, and 10.0 mM glucose. Cells were maintained at 37° C. and 5% CO2 / 95% humidified air and medium was replaced every 2 to 3 days. All experiments were performed with cells from passages 66 to 71.
(§2) Amylin and insulin secretion were measured using reagents of analytical grade unless otherwise indicated. The secretion medium was a Krebs-Ringer buffer (KRB) containing 119 mM NaCl, 4.74 mM KCl, 2,54 mM CaCl2, 1.19 mM MgSO4, 1.19 mM KH2 PO4, 25 mM NaHCO3, 10 mM HEPES and 0.1% protease-free bovine serum albumin (Cohn fraction V; Sigma Chemical Co., St. Louis Mo.) at pH 7.4. Glibenclamide (Sigma) was initially dissolved in ethanol (50 mg/ml) then diluted to working concentrations in KRB. […] Tolbutamide (Sigma) was initially dissolved in dimethylsulfoxide (50 mg/ml). […] Metformin (Sigma) was diluted in KRB.
(§3) Five days before each secretion study cells were subcultured at 0.26×10^6 cells/0.8 ml medium/well in 24-well tissue culture plates (Corning Glass Works, Corning N.Y.). Medium was replaced on day 3. On day 5 cells were washed twice with 1.0 ml KRB then incubated in 1.0 ml KRB (30 minutes, 37° C.) in equilibrium with air. Cells were washed twice more prior to addition of 0.5 ml KRB containing the indicated concentrations of glucose, metformin, tolbutamide and glibenclamide. After a 60 minute incubation with test substance or substances, supernatants were centrifuged (5 minutes, 500×g, 5° C.; GPKR centrifuge, Beckman Instruments, Inc., Palo Alto, Calif.) to remove cell debris, then stored in polypropylene micro test tubes (Brinkman Instrument Co., Westbury, N.Y.) at -20° C. until analyzed by radioimmunoassay. Supernatants were analyzed for insulin and amylin content within one week of collection. Three wells per plate were randomly selected for cell quantitation. Cells were incubated with 75 μg trypsin and 30 μg EDTA in 150 μl normal saline (8 minutes, 37° C.), then counted on a Coulter Counter (Model Zf, Coulter Electronics, Hialeah, Fla.).
(§4) Immunoreactive insulin content in supernatants was measured using a commercial radioimmunoassay (IM.78; Amersham, Arlington Heights, Ill.). […] The radioimmunoassay for immunoreactive amylin was as follows. Assay diluent was phosphate-buffered saline (PBS; 137 mM NaCl, 2.68 mM KCl, 1.47 mM KH2 PO4, 6.65 mM Na2 HPO4) containing 0.1% Triton-X 100 (v/v), 0.01% NaN3 (w/v), and 0.1% gelatin (v/v; teleostean, 45% aqueous solution, Sigma) at pH 7.4. All incubations were performed at 4° C. ^125 I-[Tyr 37]-human synthetic amylin tracer was iodinated by the chloramine-T method and purified on a C18 Sep-Pak (Waters Associates, Milford, Mass.). Specific activity was approximately 500 μCi/μg.
Standards and unknowns were run in triplicate or duplicate respectively. After an 18 hour incubation, 100 μl of tracer containing 20,000 dpm was added and samples were incubated an additional 18 hours. To ensure complete immunoprecipitation of amylin:antibody complexes, 100 μl of rabbit gamma globulin (0.35 mg/ml, Scantibodies Laboratory, Santee, Calif.) and 100 μl of goat anti-rabbit gamma globulin (0.50 mg/ml, purified grade; Scantibodies) were added. After a 15 minute incubation, 1.0 ml 2% polyethylene glycol (w/v. MW 8,000; Sigma) in assay buffer was added and samples were centrifuged (30 minutes, 1500×g, 5° C.). Samples were decanted and pellets were counted on a gamma counter (model 1277; LKB Wallac, Turku, Finland).
Data in FIGS. 3 and 4 are shown as the mean±S.D. of 4 replicate samples.

[2] = test system: HIT T-15 cells; test: Insulin release from HIT T-15 cells; type: cell-based, hamster
Description: as §1, §2, §3, §4
Data in FIGS. 3 and 4 are shown as the mean±S.D. of 4 replicate samples. An unpaired Student's t-test was used to compare secretion in the absence and presence of hypoglycemic agent (Statview 512+ program; Brain Power, Inc., Calabasas, Calif.).
as §1, with “Md.)” for “MD; R. F. Santerre, et al. (1981) Proc. Nat. Acad. Sci. USA 78, 4339-4343.)”, “L-glutamine, 10^5 IU penicillin G/1, 100 mg streptomycin/1” for “L-glutamine,”, “C02/” for “CO2 /”, “62” for “66”

[3] = test system: HIT T-15 cells; test: Amylin/insulin (A/I) secretion ratio of HIT T-15 cells; type: cell-based, hamster
Description: as §1, with “Md.)” for “MD; R. F. Santerre, et al. (1981) Proc. Nat. Acad. Sci. USA 78, 4339-4343.)”, “L-glutamine, 10^5 IU penicillin G/1, 100 mg streptomycin/1” for “L-glutamine,”, “C02/” for “CO2 /”, “62” for “66”
Five days before each secretion study, cells were subcultured at 0.26×10^6 cells per 0.8 ml medium per well in 24-well tissue culture plates. Medium was replaced on day 3. On day 5 cells were washed twice with […] 1.0 ml Krebs-Ringer buffer (KRB) containing 119 mM NaCl, 4.74 mM KCl, 2.54 mM CaCl2, 1.19 mM KH2 PO4, 25 mM NaHCO3, 10 mM HEPES and 0.1% protease-free bovine serum albumin (Cohn fraction V; Sigma Chemical Co., St. Louis Mo.) at pH 7.4. After washing 1.0 ml KRB was added and plates were incubated for 30 minutes at 37° C. in equilibrium with air. […] After a 60 minute incubation with test substance, supernatants were centrifuged to remove cell debris, then stored at -20° C. Supernatants were analyzed for insulin and amylin content by radioimmunoassay within one week of collection. Three wells per plate were trypsinized and cells per well were quantitated using a Coulter Counter (Model Zf, Coulter Electronics, Hialeah, Fla.). Data are expressed as the percentage change in pmoles of hormone released/10^6 cells, relative to controls (absence of test substance) or as the moles of amylin released/mole of insulin/10^6 cells/hour (A/I ratio).
Immunoreactive insulin content in supernatants was measured using a commercial radioimmunoassay (IM.78; Amersham, Arlington Heights, Ill.). Human insulin standards were prepared in KRB. […] The radioimmunoassay for immunoreactive amylin was as described in Example 7 above.

[4] = test system: isolated rat islets of Langerhans; test: Glucose-stimulated insulin secretion from isolated rat islets of Langerhans; type: cell-based; settings: substance 650 nmol/L; glucose 10 mmol/L
Description: The following experiments illustrate the fact that subpeptides of amylin can act to reduce the amount of insulin produced by isolated islets of Langerhans in response to a standard glucose challenge. Similar results have been obtained using whole amylin. All experiments were performed by known methods used in experimental practice. See, e.g., Lacey P. E., and Kostianovsky M., Method for the Isolation of Intact Islets of Lanaerhans from the Rat Pancreas. Diabetes 1967; 16:35-39.
Briefly, rats were killed, and islets of Langerhans were isolated from their pancreases. Experiments were performed either with freshly isolated islets or after overnight incubation of islets (23 h) in standard culture medium and conditions at 37° C. Synthetic amylin peptide 27-37 or synthetic calcitonin gene related peptide (CGRP) was dissolved in a 1.0 mmol/L citric acid/sodium citrate buffer, pH 3.0, and the concentration of the amylin 27-37 was verified by quantitative amino acid analysis. See, e.g., Cooper G. J. S. et al., Proc Natl Acad Sci USA 1987; 84:8628-8632. […] Stimulation of islets was carried out at the standard stimulatory glucose concentration of 10 mmol/L.
Production of insulin is expressed as μU/islet/h. All experiments were performed with five replicates per point. The integrity of the islet response was assessed by comparing the responses after stimulation of different aliquots of islets by two and ten mmol/L glucose, respectively, and the strength of the inhibitory response was judged against that induced by 1 μg/ml (650 nmol/L) somatostatin. Somatostatin is a 14 amino acid peptide which is a known, potent inhibitor of the insulin secretory response of islet B-cells to glucose. Arimura A. Biomed res1981; 2:233-257. […] Petterson M., Ahren B., Bottcher G., Sundler F., Endocrinology 1986; 119:865-869.
The results are shown in TABLE 5 below and all results are expressed as standard error of the mean (s.e.m.). The significance of differences between the means of groups is assessed by the t-test. The result of stimulation by 10 mmol/L glucose is compared with the results of stimulation at 2 mmol/L glucose. In all other experimental conditions, the significance of the inhibitory effect is measured against the effect of 10 mmol/L glucose alone.

[5] = biological target: T1, insulin receptor on red blood cells (Homo sapiens, UniProt P06213); test: Displacement of insulin from its receptor on red blood cells; type: binding
T1 construct: endogenous in cells; host or cells: red blood cells

[6] = cells challenged with 10 mM glucose plus 15 mM arginine
[7] = 10 mM glucose or 15 mM arginine alone or in combination, n=3

## C[C@H](N)C(=O)NCC(=O)N[C@H]1CSSC[C@@H](C(=O)O)NC(=O)[C@H](CO)NC(=O)[C@H]([C@@H](C)O)NC(=O)[C@H](Cc2ccccc2)NC(=O)[C@H]([C@@H](C)O)NC(=O)[C@H](CCCCN)NC(=O)[C@H](Cc2c[nH]c3ccccc23)NC(=O)[C@H](Cc2ccccc2)NC(=O)[C@H](Cc2ccccc2)NC(=O)[C@H](CC(N)=O)NC(=O)[C@H](CCCCN)NC1=O [Somatostatin]
[1]; [6]
  Effect on amylin release (in words): suppressed both amylin and insulin release
[2]; [6]
  Effect on insulin release (in words): suppressed both amylin and insulin release
[3]; over the somatostatin concentration range tested, 10 mM glucose plus 15 mM arginine
  A/I ratio: 0.36±0.02
[4]
  Insulin production: 44 μU/islet/hr
  Relative insulin secretion inhibition (percentage by which insulin production is reduced from control): 45%

## N=C(N)NCCC[C@H](N)C(=O)O [arginine]
[1]; increasing arginine, 60 min
  Effect on amylin secretion (in words): stimulated amylin and insulin secretion in a dose-dependent manner
[2]; increasing arginine, 60 min
  Effect on insulin secretion (in words): stimulated amylin and insulin secretion in a dose-dependent manner
[3]; [7]
  A/I ratio: 0.41±0.05
[3]; over the arginine concentration range tested
  Mean A/I ratio: 0.44±0.02

## O=C[C@H](O)[C@@H](O)[C@H](O)[C@H](O)CO [glucose]
[1]; 10 mM glucose, control conditions
  Increase in secretion of amylin: 2.5 to 4 fold
[1]; 60 min incubation
  Concentration of maximum amylin secretion: 20 mM
[1]; Mesocricetus auratus, HIT-T15, 1 h, 60 min incubation, read-out: Half-maximal response (EC50), amylin secretion
  EC50: ~2000 µM
[2]; 10 mM glucose, control (no drug) conditions
  Increase in insulin secretion: 4 to 5 fold
[2]; 60 min incubation
  Concentration of maximum insulin secretion: 20 mM
[2]; Mesocricetus auratus, HIT-T15, 1 h, 60 min incubation, read-out: Half-maximal response (EC50), insulin secretion
  EC50: ~2000 µM
[3]; [7]
  A/I ratio: 0.32±0.01

## amylin: 37-residue peptide hormone from pancreatic amyloid; preparation not specified at this place (KCNTATCATQRLANFLVHSSNNFGAILSSTNVGSNTY; Islet amyloid polypeptide; UniProt P10997 34-70, looked up)
[5]
  Displacement of insulin from its receptor (in words): not capable of significantly displacing insulin
